Results reported in US20240199546A1, “INHIBITORS OF SOLUTE CARRIER FAMILY 6A MEMBER 19 (SLC6A19) AND METHODS OF USE THEREOF” (Maze Therapeutics, Inc., priority 2022, published 2024).

These compounds were tested against T1, human SLC6A19 and TMEM27 (Homo sapiens, UniProt Q695T7) (assay: 13C6,15N-isoleucine uptake in CHO cells with doxycycline-inducible expression of human SLC6A19 and TMEM27, RapidFire mass spectrometry (Example B-2)). Details: read-out: SLC6A19_RapidFire Uptake Assay IC50.
T1 construct: expressed in transfected cells
T1 sequence (Q695T7 1-634): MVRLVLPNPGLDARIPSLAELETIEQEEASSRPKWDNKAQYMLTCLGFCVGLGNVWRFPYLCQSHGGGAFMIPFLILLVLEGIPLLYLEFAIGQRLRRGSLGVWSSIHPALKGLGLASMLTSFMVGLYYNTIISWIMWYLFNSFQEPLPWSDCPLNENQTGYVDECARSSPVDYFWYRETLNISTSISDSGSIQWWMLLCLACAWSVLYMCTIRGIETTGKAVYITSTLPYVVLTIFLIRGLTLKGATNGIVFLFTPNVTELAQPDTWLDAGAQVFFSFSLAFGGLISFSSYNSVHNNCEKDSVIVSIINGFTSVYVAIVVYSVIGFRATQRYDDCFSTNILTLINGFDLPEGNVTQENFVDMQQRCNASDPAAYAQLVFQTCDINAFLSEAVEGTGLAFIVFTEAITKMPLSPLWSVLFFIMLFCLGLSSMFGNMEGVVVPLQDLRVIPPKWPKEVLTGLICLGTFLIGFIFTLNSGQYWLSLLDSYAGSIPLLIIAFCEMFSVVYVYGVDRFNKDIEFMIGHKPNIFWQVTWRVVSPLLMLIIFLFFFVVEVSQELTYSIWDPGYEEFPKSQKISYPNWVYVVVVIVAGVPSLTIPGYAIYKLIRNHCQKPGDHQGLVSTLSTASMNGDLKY
T1 sequence (Q9HBJ8 15-222 partner): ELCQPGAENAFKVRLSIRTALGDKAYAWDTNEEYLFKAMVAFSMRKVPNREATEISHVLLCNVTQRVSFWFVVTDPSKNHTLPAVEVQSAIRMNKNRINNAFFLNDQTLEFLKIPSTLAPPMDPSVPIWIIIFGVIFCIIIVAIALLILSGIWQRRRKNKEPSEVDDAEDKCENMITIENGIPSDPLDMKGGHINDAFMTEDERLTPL
Type: cell-based
Method: Assay ready vials of CHO cells with doxycycline inducible expression of human SLC6A19 and TMEM27 were thawed, plated in T175 flasks containing DMEM/F12 media, 10% FBS, 1% Penicillin-Streptomycin, 1× UltraGlutamate, 1 mM Sodium Pyruvate, Sodium Bicarbonate (7.5 mL of 7.5% solution in 500 mL media final), 5 μg/mL Blasticidin, 150 μg/mL Hygromycin B Gold, and 500 μg/mL G418, and incubated (humidified, 37° C. with 5% CO2) for 48 hours. Media was then removed, flasks were washed with 20 mL of DPBS, and 5 mL of TrypLE™ Express was added to each flask to initiate cell dissociation. After 5 minutes, 10 mL of cell culture media was added to each flask and mixed. The cell suspension was collected and centrifuged for 5 minutes at 200×g. The supernatant was removed, and the pellet was resuspended in 10 mL of cell culture media. Resuspended cells were counted using a Vi-Cell. 30 μL/well (20,000 cells/well) of cell suspension was added to Poly-D-Lysine 384-well black/clear plates. Plates were incubated (humidified, 37° C. with 5% CO2) for 24 hours. To induce expression of human SLC6A19 and TMEM27, 10 μL of assay culture media containing 4 μg/mL doxycycline was added to each well. Assay plates were then incubated (humidified, 37° C. with 5% CO2) overnight. After incubation, the media was removed, and wells were washed 3 times with 40 μL of warmed DPBS. Next, 10 μL of warmed assay buffer (137 mM NaCl, 5 mM KCl, 1 mM CaCl2), 1 mM MgCl2, 10 mM HEPES, 10 mM glucose, pH 7.2) was added to each well. 10 μL/well of test compound or positive control compound to define 0% activity (i.e., 100% inhibition), was then added into each well. All compounds were plated in a duplicate 10-point dilution series that consisted of 2-fold dilutions. The plates were incubated (humidified, 37° C. with 5% C2) with compound for 20 minutes. Afterwards, 20 μL/well of 2 mM 13C6,15N-1-isoleucine was added to each well and plates were incubated again (humidified, 37° C. with 5% C02) for another 20 minutes. Assay buffer was then removed, and plates were washed. 70 μL/well of stop solution (75% acetonitrile, 25% HPLC grade water, 250 nM 1-leucine-1-13C (RapidFire standard)) was added to each well. The plates were sealed and then placed in a −20° C. freezer for 20 minutes. The plates were thawed at room temperature for 20 minutes and then centrifuge for 20 minutes at 3000 rpm. Using an ABSciex API4000 mass spectrometer, processed samples were loaded onto the graphitic carbon SPE-column. The time for aspiration, load/wash, elution and re-equilibration time was 600, 1500, 3000 and 500 milliseconds, respectively. Peak areas were calculated using RapidFire Integrator software.

SMILES	IC50
CC1(C(=O)NCc2cc3cc(Cl)c(OCc4cocn4)cc3[nH]2)CC1 [Compound 161, N-((5-chloro-6-(oxazol-4-ylmethoxy)-1H-indol-2-yl)methyl)-1-methylcyclopropane-1-carboxamide]	68 nM
CC1(C(=O)NCc2cc3cc(F)c(OCc4cnco4)cc3[nH]2)CC1 [Compound 57, N-((5-fluoro-6-(oxazol-5-ylmethoxy)-1H-indol-2-yl)methyl)-1-methylcyclopropane-1-carboxamide]	577 nM
O=C(NCc1cc2ccc(OCc3ccon3)cc2[nH]1)N1CCCC1 [Compound 104, N-((6-(isoxazol-3-ylmethoxy)-1H-indol-2-yl)methyl)pyrrolidine-1-carboxamide]	452 nM
Cn1cc(COc2ccc3cc(CNC(=O)C4(C)CC4)[nH]c3c2)nn1 [Compound 168, 1-methyl-N-((6-((1-methyl-1H-1,2,3-triazol-4-yl)methoxy)-1H-indol-2-yl)methyl)cyclopropane-1-carboxamide]	7440 nM
CC1(C(=O)NCc2cc3ccc(CCc4ccon4)cc3[nH]2)CC1 [Compound 75, N-((6-(2-(isoxazol-3-yl)ethyl)-1H-indol-2-yl)methyl)-1-methylcyclopropanecarboxamide]	464 nM
CN(Cc1ccccc1)c1ccc2cc(CNC(=O)C3(C)CC3)[nH]c2c1 [Compound 2, N-((6-(benzyl(methyl)amino)-1H-indol-2-yl)methyl)-1-methylcyclopropane-1-carboxamide]	992 nM
CC1(C(=O)NCc2cc3ccc(OCc4csnn4)cc3[nH]2)CC1 [Compound 170, N-((6-((1,2,3-thiadiazol-4-yl)methoxy)-1H-indol-2-yl)methyl)-1-methylcyclopropane-1-carboxamide]	187 nM
Cc1noc(COc2ccc3cc(CNC(=O)C4(C)CC4)[nH]c3c2)n1 [Compound 169, 1-methyl-N-((6-((3-methyl-1,2,4-oxadiazol-5-yl)methoxy)-1H-indol-2-yl)methyl)cyclopropane-1-carboxamide]	83 nM
CC1(C(=O)NCc2cc3ccc(OCc4cccnc4)cc3[nH]2)CC1 [Compound 55, 1-methyl-N-((6-(pyridin-3-ylmethoxy)-1H-indol-2-yl)methyl)cyclopropane-1-carboxamide]	427 nM
CCc1cc(COc2cc3[nH]c(CNC(=O)C4(C)CC4)cc3cc2Cl)no1 [Compound 95]	267 nM
CC1(C(=O)NCc2cc3ccc(OCc4ccsn4)cc3[nH]2)CC1 [Compound 94, N-((6-(isothiazol-3-ylmethoxy)-1H-indol-2-yl)methyl)-1-methylcyclopropanecarboxamide]	43.4 nM
Cc1nc(COc2ccc3cc(CNC(=O)C4(C)CC4)[nH]c3c2)co1 [Compound 180, 1-methyl-N-((6-((2-methyloxazol-4-yl)methoxy)-1H-indol-2-yl)methyl)cyclopropane-1-carboxamide]	563 nM
CC1(C(=O)NCc2cc3ccc(OCc4cncnc4)cc3[nH]2)CC1 [Compound 52, 1-methyl-N-((6-(pyrimidin-5-ylmethoxy)-1H-indol-2-yl)methyl)cyclopropane-1-carboxamide]	2110 nM
CNC(=O)NCc1cc2cc(Cl)c(OCc3cocn3)cc2[nH]1 [Compound 111, 1-((5-chloro-6-(oxazol-4-ylmethoxy)-1H-indol-2-yl)methyl)-3-methylurea]	586 nM
CC1(C(=O)NCc2cc3cc(Cl)c(OCc4cnsn4)cc3[nH]2)CC1 [Compound 183, N-((6-((1,2,5-thiadiazol-3-yl)methoxy)-5-chloro-1H-indol-2-yl)methyl)-1-methylcyclopropane-1-carboxamide]	39 nM
Cc1nc(COc2cc3[nH]c(CNC(=O)C4(C)CC4)cc3cc2Cl)co1 [Compound 182, N-((5-chloro-6-((2-methyloxazol-4-yl)methoxy)-1H-indol-2-yl)methyl)-1-methylcyclopropane-1-carboxamide]	91 nM
CC1(C(=O)NCc2cc3ccc(OCc4ccncc4)cc3[nH]2)CC1 [Compound 56, 1-methyl-N-((6-(pyridin-4-ylmethoxy)-1H-indol-2-yl)methyl)cyclopropane-1-carboxamide]	1950 nM
Cc1cc(CCc2ccc3cc(CNC(=O)C4(C)CC4)[nH]c3c2)no1 [Compound 77, 1-methyl-N-((6-(2-(5-methylisoxazol-3-yl)ethyl)-1H-indol-2-yl)methyl)cyclopropane-1-carboxamide]	355 nM
Cc1cc2cc(CNC(=O)C3(C)CC3)[nH]c2cc1OCc1ccon1 [Compound 10, N-((6-(isoxazol-3-ylmethoxy)-5-methyl-1H-indol-2-yl)methyl)-1-methylcyclopropane-1-carboxamide]	130 nM
CC1(C(=O)NCc2cc3ccc(OCc4ccno4)cc3[nH]2)CC1 [Compound 62, N-((6-(isoxazol-5-ylmethoxy)-1H-indol-2-yl)methyl)-1-methylcyclopropanecarboxamide]	493 nM
CC1(C(=O)NCc2cc3ccc(OCc4cnsn4)cc3[nH]2)CC1 [Compound 166, N-((6-((1,2,5-thiadiazol-3-yl)methoxy)-1H-indol-2-yl)methyl)-1-methylcyclopropane-1-carboxamide]	48 nM
CC1(C(=O)NCc2cc3ccc(OCc4ccccc4)cc3[nH]2)CC1 [Compound 5, N-((6-(benzyloxy)-1H-indol-2-yl)methyl)-1-methylcyclopropanecarboxamide]	53 nM
CNC(=O)COc1ccc2cc(CNC(=O)C3(C)CC3)[nH]c2c1 [Compound 162, 1-methyl-N-((6-(2-(methylamino)-2-oxoethoxy)-1H-indol-2-yl)methyl)cyclopropane-1-carboxamide]	16300 nM
CC1(C(=O)NCc2cc3ccc(OCC4CCCC4)cc3[nH]2)CC1 [Compound 187, N-((6-(cyclopentylmethoxy)-1H-indol-2-yl)methyl)-1-methylcyclopropane-1-carboxamide]	178 nM
Cn1nnc(COc2ccc3cc(CNC(=O)C4(C)CC4)[nH]c3c2)n1 [Compound 174, 1-methyl-N-((6-((2-methyl-2H-tetrazol-5-yl)methoxy)-1H-indol-2-yl)methyl)cyclopropane-1-carboxamide]	2080 nM
CC1(C(=O)NCc2cc3ccc(OCC4CCOC4)cc3[nH]2)CC1 (stereo not shown) [Compound 188, 1-methyl-N-((6-((tetrahydrofuran-3-yl)methoxy)-1H-indol-2-yl)methyl)cyclopropane-1-carboxamide]	4450 nM
CC1(C(=O)NCc2cc3ccc(OCc4nncs4)cc3[nH]2)CC1 [Compound 171, N-((6-((1,3,4-thiadiazol-2-yl)methoxy)-1H-indol-2-yl)methyl)-1-methylcyclopropane-1-carboxamide]	1730 nM
Cc1cc(COc2ccc3cc(CNC(=O)C4(C)CC4)[nH]c3c2)on1 [Compound 181, 1-methyl-N-((6-((3-methylisoxazol-5-yl)methoxy)-1H-indol-2-yl)methyl)cyclopropane-1-carboxamide]	183 nM
